The source of these data is patent US20260166051A1, “COMPOUNDS AND METHODS FOR TREATING CANCER” (The Regents of the University of California, priority 2022, published 2026).

The subject of series [1] is p-ERK. In words: Western blotting of patient-derived glioblastoma cells. Type of series: cell-based, human. As to conditions: Western blot. An excerpt:
(§1) Compound 2 was identified in an unbiased phenotypic screen and MCX analogs were synthesized without knowledge of the actual molecular target. […] Western blotting confirmed inhibition of the downstream targets with downregulation of p-Erk, p-Akt and upregulation of cytosolic beta-catenin (FIG. 4).

Series [2] deals with p-AKT. The series is described as above. Format: cell-based, human. As to conditions: Western blot.
Description: as §1
Background: In western blotting, separated proteins are transferred to a membrane and probed.

Series [3] deals with cytosolic beta-catenin. The series is described as above. Type of series: cell-based, human. As to conditions: Western blot.
Description: as §1

For series [4], the system named is non-stem glioblastoma cells. In words: Reprogramming assay (phenotype conversion, ZsGreen-cODC reporter, flow cytometry). Format: cell-based, human. The note with it: spontaneous and radiation-induced. The procedure:
Primary glioblastoma cells were engineered to express a fusion protein of ZsGreen and the C-terminal degron of ornithine decarboxylase. This construct reports for lack of 26S proteasome activity and cells with low proteasome activity are enriched for cells with tumor-initiating properties. For reprogramming experiments, cells with low proteasome activity (ZsGreen-positive) were removed by FACS. ZsGreen-negative cells were treated and 5 days later the number of radiation-induced ZsGreen-positive cells was assessed by flow cytometry.
(In flow cytometry, cells or beads pass a laser one at a time.)

Series [5] can be described thus: PK study, plasma and brain concentration by mass spectrometry. Type of series: in vivo. As to conditions: mice; for Kp: mouse, brain/plasma, 50 mg/kg. The procedure:
FIGS. 38A and 38B. PK studies for MXC-017 and MXC-079 Mice were treated with a single dose of the novel compounds at 50 mg/kg. Plasma and brain samples were taken at indicated time points and compound concentration measured by mass spectrometry.
(§2) After two weeks of treatment the tumors were harvested, processed into single cells and the number of glioma cells with sphere-forming capacity (glioma stem cells) was determined in a functional assay (extreme limiting dilution assay). […] (FIG. 40A).

The test system of series [6] is normal tissue cell lines. In words: Toxicity in normal tissue cell lines (NIH3T3 fibroblasts, EOC20 microglia, human astrocytes, murine neural stem/progenitor cells). Type of series: cell-based. The note with it: alone or in combination with radiation.
Description: FIGS. 5A-D. Toxicity of the analogs MXC017, 079 and 021 in fibroblasts (NIH3T3, FIG. 5A), microglia cells (EOC20, FIG. 5B), human astrocytes (FIG. 5C) or murine neural stem/progenitor cells (FIG. 5D).
as §1

Series [7] can be described thus: In vivo BBB penetration of compound 2. As to conditions: mice.
The subject of series [8] is patient-derived glioma cells. Briefly: Secondary screening: self-renewal in patient-derived glioma cells. The note with it: patient-derived glioma cells (GBM). Format: cell-based, human. How it is done: Cells were seeded under serum-free conditions into untreated plates in DMEM/F12 media, supplemented with 10 ml/500 mL of B27 (Invitrogen), 0.145 U/ml recombinant insulin (Eli Lilly, Indiana), 0.68 U/mL heparin (Fresenius Kabi, Illinois), 20 ng/ml fibroblast growth factor 2 (bFGF, Sigma) and 20 ng/ml epidermal growth factor (EGF, Sigma). After 10 days in culture, spheres formed from singles cells were counted. Certain compounds tested in sphere-forming assay according to the present disclosure are shown below. Results are shown in FIGS. 6, 7, 8, 9-19, 26, 33-37.

Series [9] is described as follows: Tolerability and body weight in mice. Type of series: in vivo, NSG mice.
Series [10] has as its system PDOX models of GBM. In words: Survival in PDOX models of GBM. Format: in vivo, mice.
The test system of series [11] is Olig2-positive oligodendrocytes. Briefly: Immunofluorescent staining of brains of glioma bearing mice. Type of series: in vivo. As to conditions: combined treatment with radiation and MXC-017. The text has this:
(§3) FIGS. 41A-B. Immunofluorescent staining of brains of glioma bearing mice using antibodies against Olig2 and Nestin. Combined treatment with radiation and MXC-017 eliminated Nestin-positive glioma stem cells in the tumors while not effecting the sensitive normal tissue cell population of Olig2-positive oligodendrocytes in the brain. Nuclei were counterstained.

Series [12] has as its system Nestin-positive glioma stem cells. The series is described as above. Type of series: in vivo. As to conditions: combined treatment with radiation and MXC-017.
Description: as §3

In series [13] the test system is HK374 cells. In words: In vivo treatment of HK374 tumors, then in vitro extreme limiting dilution assay. On the set-up: species or system NSG mice. The procedure:
FIGS. 39A-D. FIG. 39A NSG mice were injected with HK374 cells. After 2 weeks post grafting, mice received a single dose of 10 Gy and 5 daily injections/week of MXC-017 or saline for 2 weeks. Tumors were harvested and an in vitro extreme limiting dilution assay was performed. […] FIG. 39D Elimination of GSCs was reflected by the complete loss of cells with self-renewing capacity.
as §2

The nature of series [14]: Histology of major organs (kidneys, lung, spleen, heart, liver). Format: in vivo, mice. As to conditions: 50 mg/kg, 2 weeks, 5 days on, 2 days off.
The subject of series [15] is HK-374 glioma stem cells. In words: Sphere-forming assay: self-renewal of HK-374 glioma stem cells. Type of series: cell-based, human. As to conditions: n=3. An excerpt: FIG. 42. Inhibition of self-renewal of HK-374 glioma stem cells in the absence of radiation.
FIG. 43. Inhibition of self-renewal of HK-374 glioma stem cells in combination with 4 Gy.
Primary human glioma cell lines were established at UCLA as described (Hemmati et al., PNAS 2003; Characteristics of specific gliomasphere lines can be found in Laks et al., Neuro-Oncology 2016). Primary glioblastoma cells were propagated as gliomaspheres in serum-free conditions in T25 flasks in DMEM/F12, supplemented with B27, EGF, bFGF and heparin as described previously (Vlashi et al., Journal of the NCI, 2009, 101, 350-9). All cells were grown in a humidified atmosphere at 37° C. with 5% CO2. The unique identity of all patient-derived specimen was confirmed by DNA fingerprinting (Laragen, Culver City, CA). All lines were routinely tested for mycoplasma infection (MycoAlert, Lonza). […]
Cells were seeded under serum-free conditions into untreated plates in DMEM/F12 media, supplemented with 10 ml/500 mL of B27 (Invitrogen), 0.145 U/ml recombinant insulin (Eli Lilly, Indiana), 0.68 U/mL heparin (Fresenius Kabi, Illinois), 20 ng/ml fibroblast growth factor 2 (bFGF, Sigma) and 20 ng/ml epidermal growth factor (EGF, Sigma). After 10 days in culture, spheres formed from singles cells were counted. […]

Where [16] appears, read: single dose 50 mg/kg, brain versus plasma, read-out: enrichment in brain tissue.
[17] abbreviates: read-out: brain to plasma ratio.
The mark [18] stands for this setting: alone or in combination with radiation.

Entries after “also recorded” stand apart in the source; their conditions may differ. Like-named read-outs stand apart in the source and are kept apart here.

For `O=C(NCc1ccc(S(=O)(=O)N2CCCCCC2)cc1)n1ccc2ccccc21` [MXC079, N-(4-(Azepan-1-ylsulfonyl)benzyl)-1H-indole-1-carboxamide], the “p-ERK level (FLT3 target)” value in [1] was “down-regulation”. The “p-AKT level (FLT3 target)” value in series [2] was “down-regulation”. The “cytosolic beta-catenin level (TNIK target)” value in series [3] was “stabilization”. Besides, the “phenotype conversion of non-stem glioma cells into glioblastoma-initiating cells” value in [4] (listed as MCX079) is “prevent spontaneous and radiation-induced phenotype conversion; also recorded: prevented radiation-induced phenotype conversion”. The peak brain concentrations entry in series [5] is “in the micromolar range”. Also, the Kp came out at 2.63 in series [5] (setting [16]) and 2.6 in series [5] (setting [17]). Besides, in series [6], the “toxicity in normal tissue cell lines” value is given as “no relevant toxicity”.

For the molecule `CCN(CC)S(=O)(=O)c1ccc(CNCc2ccccc2N)cc1` [MXC021, 4-(((2-Aminobenzyl)amino)methyl)-N,N-diethylbenzenesulfonamide], the “toxicity in normal tissue cell lines” value in series [6] is “no relevant toxicity”.

As to `C=C1c2ccccc2NC(=O)N1Cc1ccc(S(=O)(=O)N2CCCCC2)cc1` [Compound 2, 4-Methylene-3-(4-(piperidin-1-ylsulfonyl)benzyl)-3,4-dihydroquinazolin-2(1H)-one], the “BBB penetration in vivo” value in series [7] was “penetrates the BBB”; in series [7] (listed as compound 2), “confirmed the in silico prediction of BBB penetration”. For the same molecule, the values for the inhibition of self-renewal entry in series [8] and in series [8] (listed as compound 2) were “inhibits self-renewal” and “confirming activity”, respectively.

`O=C(NCc1ccc(S(=O)(=O)N2CCCCC2)cc1)n1ccc2ccccc21` [MXC017, N-(4-(Piperidin-1-ylsulfonyl)benzyl)-1H-indole-1-carboxamide]: the tolerability entry in series [9] (5 daily injections/week for 2 weeks) is “well tolerated; also recorded: well tolerated in mice with no acute clinical toxicity”. In series [9] (setting [18]), the “body weight during observation time of 2 weeks” value is “allowed animals to gain weight”. Moreover, the “p-ERK level (FLT3 target)” value in series [1] was “down-regulation”. The “p-AKT level (FLT3 target)” value in [2] was “down-regulation”. Also, the “cytosolic beta-catenin level (TNIK target)” value in series [3] was “stabilization”. Further, the median survival entry is reported as “small but significant increase” in series [10] (MXC-017 alone, five daily doses/week) and 60 days in [10] (single dose 10 Gy plus MXC-017 50 mg/kg, 5 days on, 2 days off, prolonged from 29 days, p<0.0001 log-rank). Further, the “phenotype conversion of non-stem glioma cells into glioblastoma-initiating cells” value in [4] (listed as MCX017) was “prevent spontaneous and radiation-induced phenotype conversion; also recorded: prevented radiation-induced phenotype conversion”. In addition, the “effect on oligodendrocytes (normal tissue) in the brain” value in series [11] is “not effecting; also recorded: had no effect”. For the same molecule, the “Nestin-positive glioma stem cells in the tumors” value in series [12] was “eliminated”. In addition, the “number of GSCs” value in series [13] (MXC-017 alone, 2 weeks treatment, extreme limiting dilution assay) is listed as “significantly reduced”; in series [13] (combination of radiation (single dose 10 Gy) and MXC-017), “eliminated all GSCs”. Further, the “frequency of glioma stem cells” value in series [13] (setting [18]) is “significantly reduced”. Also, in series [13] (setting [18]), the “number of sphere forming cells” value is “reduced the number of sphere forming cells”. Also, the “histological signs of toxicity in major organs” value in series [14] is on record as “did not reveal any toxicity”. In series [5], the peak brain concentrations result is “in the micromolar range”. The Kp in series [5] (setting [16]) and in series [5] (setting [17]) was 4.55 throughout. Besides, the “toxicity in normal tissue cell lines” value in [6] is on record as “no relevant toxicity”.

Regarding `O=C(NCc1ccc(S(=O)(=O)N2CCCCC2)cc1)n1ccc2cc(Cl)ccc21` [MHD003, 5-chloro-N-(4-(piperidin-1-ylsulfonyl)benzyl)-1H-indole-1-carboxamide], the “self renewal of glioma stem cells, % of irradiated controls” value in series [15] (in combination with 4 Gy, controls DMSO, p<0.0001) is listed as 6%. Besides, the “self-renewal of HK-374 glioma stem cells in the absence of radiation (reduced to)” value in series [15] (unirradiated cells, one-way ANOVA) was 14%.
